Measurements published in patent publication US4370339A, “Method for treating inflammatory conditions” (Abbott Laboratories, priority 1981, dated 1983).

Assays:
[1] = tested on: rats; experiment: toxicity, fatality ratio in rats; type: in vivo; settings: for Fatality Ratio: rats
Protocol: The lesser toxicity of the 1-alkaryl derivatives is illustrated by the data of Table 3, which gives the fatality ratio in rats when the compounds were administered in the indicated dosages.

[2] = tested on: reverse passive Arthus reaction; experiment: reverse passive Arthus reaction in the rat; type: in vivo, rat (male Sprague-Dawley); settings: oral, 100 mg/kg of body weight; lesion measured 4 h after anti-B.S.A.; groups of 4 rats
Text: The anti-inflammatory activity of the compounds used in the invention was established using the reverse passive Arthus reaction in the rat as described by G. W. Carter and R. A. Krause in Federation Proceedings, Vol. 35, page 774, 1976. Although the carrageenin rat paw edema test (Winter et al., Proc. Soc. Exp. Biol. Med., 111, 554, 1962) can also be used to establish anti-inflammatory activity, the Arthus reaction, unlike carrageenin induced edema, is a well-characterized immune reaction which bears close resemblance to the pathogenesis of rheumatoid arthritis.
The Arthus reaction represents one of the oldest and best studied models of immunological injury. It is produced by the injection of antigen locally into a hyperimmunized animal or by the injection of a small amount of antibody into the skin of an animal that has just previously been given a large amount of soluble antigen intravenously. In both cases, the antigen and antibody become deposited in the walls of small venules. Plasma complement is rapidly bound and activated. […]
Thirty minutes after administration of the drug, each animal is injected intradermally with 0.05 ml of 1.44% anti-B.S.A. into the dorsal skin. […] Two perpendicular diameters of each lesion are measured. […]

[3] = tested on: carrageenin pleurisy; experiment: modification of the carrageenin pleurisy assay; type: in vivo
Text: Also tested for comparison was phenylbutazone, a compound known to have anti-inflammatory activity.

NC1=NN(c2cccc(C(F)(F)F)c2)CC1 [1-(m-trifluoromethylphenyl)-3-amino-2-pyrazoline, reference compound]
Fatality Ratio ([1]; 285 mg/kg): 8/10

NC1=NN(Cc2ccccc2)CC1 [1-benzyl-3-amino-2-pyrazoline]
% Inhibition Of Lesion [2]: 57%
% Inhibition Cells ([3]; 120 mg/kg): 55%
% Inhibition Volume Exudate ([3]; 120 mg/kg): 76%
Fatality Ratio ([1]; 512 mg/kg): 0/10
toxicity relative to 1-aryl derivatives, in words ([1]; compared with 1-aryl derivatives of 3-amino-2-pyrazoline): markedly less toxic

O=C1CCN(Cc2ccccc2)N1 [1-benzyl-3-pyrazolidinone, reference compound]
% Inhibition Of Lesion [2]: 28%

CCCCC1C(=O)N(c2ccccc2)N(c2ccccc2)C1=O [phenylbutazone, reference compound]
% Inhibition Cells ([3]; 100 mg/kg): 13%
% Inhibition Volume Exudate ([3]; 100 mg/kg): 59%
